We go through 2 molecules from ChEMBL document CHEMBL1157429, “Design of a fluorescence polarization assay platform for the study of human Hsp70” (Bioorg Med Chem Lett, 2008).

The nature of test [1]: Binding affinity to human recombinant Hsp70 after 24 hrs by fluorescence polarization assay. (Polarisation of emitted light reports the rotation of a fluorescent probe.)
For test [2], the species on record is Homo sapiens. Nature of the test: Decrease in binding affinity to human recombinant Hsp70 at 5 nM by fluorescence polarization assay in presence of ATP.
The target in test [3] is Heat shock protein HSP90 (Homo sapiens) (UniProt P07900+P08238). The experiment in a line: Binding affinity to human recombinant Hsp90 by fluorescence polarization assay. The test is classed as protein assay.
The species entered for test [4] is Homo sapiens. The experiment in a line: Binding affinity to human Hsp70 assessed as activation of single-turnover ATPase activity at 8 uM.
A short description of test [5]: Binding affinity to Escherichia coli Hsp70 by fluorescence polarization assay.

Activity calls are given as the source filed them. No cut-off for these calls is given here.

For orientation: Kd means the concentration at which binding is half-saturated.

As to `CC(C)C[C@H](NC(=O)[C@H](C)NC(=O)CCCCCNC(=S)Nc1ccc(-c2c3ccc(=O)cc-3oc3cc(O)ccc23)c(C(=O)O)c1)C(=O)N[C@@H](CC(C)C)C(=O)N[C@@H](CC(C)C)C(=O)N[C@@H](CO)C(=O)N[C@@H](C)C(=O)N1CCC[C@H]1C(=O)N[C@@H](CCCNC(=N)N)C(=O)N[C@@H](CCCNC(=N)N)C(=O)O`, in test [1], the Kd worked out at 0.426 µM. Besides, in the test listed under Homo sapiens [2], the outcome was Active. The result in test [3] was inactive. Moreover, the Activity entry in the test filed under Homo sapiens [4] is “Dose-dependent effect”.

With `CC(C)C[C@H](NC(=O)[C@H](C)N)C(=O)N[C@@H](CC(C)C)C(=O)N[C@@H](CC(C)C)C(=O)N[C@@H](CO)C(=O)N[C@@H](C)C(=O)N1CCC[C@H]1C(=O)N[C@@H](CCCNC(=N)N)C(=O)N[C@@H](CCCNC(=N)N)C(=O)O`, the Kd in test [5] worked out at 0.4 µM.
